According to ChEMBL document CHEMBL3608225, “Harpagoside Inhibits RANKL-Induced Osteoclastogenesis via Syk-Btk-PLCγ2-Ca(2+) Signaling Pathway and Prevents Inflammation-Mediated Bone Loss” (J Nat Prod, 2015):
Activity calls are given as the source filed them. No cut-off for these calls is given here.

What was measured:
Mus musculus [1] = test: Inhibition of ovariectomized-induced bone loss in C57BL/6 mouse assessed as CTX-I level in serum at 10 mg/kg, po administered every other day for 28 days by ELISA; format: functional, organism-based
[2] = target: T1, Tumor necrosis factor ligand superfamily member 11 (Mus musculus) (UniProt O35235); test: Inhibition of RANKL-mediated osteoclastogenesis in mouse BMMC assessed as reduction of CTR mRNA expression at 100 uM after 12 to 48 hrs by RT-PCR analysis; format: functional
T1 sequence (whole entry): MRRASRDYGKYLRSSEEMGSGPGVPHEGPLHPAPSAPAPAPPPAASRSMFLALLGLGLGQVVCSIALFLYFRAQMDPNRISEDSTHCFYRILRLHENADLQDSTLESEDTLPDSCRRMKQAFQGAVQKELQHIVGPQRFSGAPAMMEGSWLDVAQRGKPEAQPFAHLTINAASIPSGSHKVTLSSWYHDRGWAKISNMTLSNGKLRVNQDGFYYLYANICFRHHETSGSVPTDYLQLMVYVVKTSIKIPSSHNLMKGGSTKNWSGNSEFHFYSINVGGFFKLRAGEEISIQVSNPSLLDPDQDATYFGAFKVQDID

[3] = Cytotoxicity against mouse BMMC assessed as cell viability after 3 days by XTT assay; conditions: 72 h
Mus musculus [4] = test: Inhibition of ovariectomized-induced bone loss in C57BL/6 mouse assessed as restoration of bone loss in femurs at 10 mg/kg, po administered every other day for 28 days by hematoxylin and eosin staining; format: functional, organism-based
[5] = target: T2, 1-phosphatidylinositol 4,5-bisphosphate phosphodiesterase gamma-2 (Mus musculus) (UniProt Q8CIH5); test: Inhibition of RANKL-mediated PLCgamma2 phosphorylation in mouse BMMC at 100 uM after 1 hr by Western blot analysis
T2 sequence (whole entry): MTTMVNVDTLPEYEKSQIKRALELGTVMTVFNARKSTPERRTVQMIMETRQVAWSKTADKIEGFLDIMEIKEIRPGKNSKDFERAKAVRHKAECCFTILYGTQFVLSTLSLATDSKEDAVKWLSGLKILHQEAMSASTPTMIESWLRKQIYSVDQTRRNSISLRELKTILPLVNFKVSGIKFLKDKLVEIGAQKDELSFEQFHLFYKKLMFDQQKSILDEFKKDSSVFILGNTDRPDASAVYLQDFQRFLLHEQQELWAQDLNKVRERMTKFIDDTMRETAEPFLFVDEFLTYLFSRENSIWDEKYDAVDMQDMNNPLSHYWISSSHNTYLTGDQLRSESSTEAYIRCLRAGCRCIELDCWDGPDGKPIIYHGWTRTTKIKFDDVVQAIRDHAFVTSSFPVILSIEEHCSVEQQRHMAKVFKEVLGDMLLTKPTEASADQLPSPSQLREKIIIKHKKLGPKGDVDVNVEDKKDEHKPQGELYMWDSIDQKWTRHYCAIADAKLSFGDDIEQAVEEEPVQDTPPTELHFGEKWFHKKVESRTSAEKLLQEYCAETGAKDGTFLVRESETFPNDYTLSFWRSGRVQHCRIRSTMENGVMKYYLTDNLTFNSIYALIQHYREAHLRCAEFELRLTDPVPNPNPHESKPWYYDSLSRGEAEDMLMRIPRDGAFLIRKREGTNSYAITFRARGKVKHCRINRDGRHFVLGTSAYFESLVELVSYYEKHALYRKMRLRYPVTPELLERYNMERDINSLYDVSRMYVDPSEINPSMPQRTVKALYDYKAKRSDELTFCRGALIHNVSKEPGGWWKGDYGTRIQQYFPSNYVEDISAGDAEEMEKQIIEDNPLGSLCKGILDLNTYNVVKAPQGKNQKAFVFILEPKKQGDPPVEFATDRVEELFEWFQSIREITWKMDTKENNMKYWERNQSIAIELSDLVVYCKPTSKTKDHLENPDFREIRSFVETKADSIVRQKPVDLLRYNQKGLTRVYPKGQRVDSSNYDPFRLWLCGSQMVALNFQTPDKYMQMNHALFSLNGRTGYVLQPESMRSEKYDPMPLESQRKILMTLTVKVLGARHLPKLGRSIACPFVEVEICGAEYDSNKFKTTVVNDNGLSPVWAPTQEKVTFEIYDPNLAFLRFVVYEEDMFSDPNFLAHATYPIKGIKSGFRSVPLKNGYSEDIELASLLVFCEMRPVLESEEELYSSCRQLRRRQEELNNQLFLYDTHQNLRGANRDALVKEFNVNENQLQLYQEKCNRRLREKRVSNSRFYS

[6] = target: Tyrosine-protein kinase BTK (Mus musculus) (UniProt P35991); test: Inhibition of RANKL-mediated Btk phosphorylation in mouse BMMC at 100 uM after 1 hr by Western blot analysis
Tyrosine-protein kinase BTK (Mus musculus), sequence (P35991 whole entry): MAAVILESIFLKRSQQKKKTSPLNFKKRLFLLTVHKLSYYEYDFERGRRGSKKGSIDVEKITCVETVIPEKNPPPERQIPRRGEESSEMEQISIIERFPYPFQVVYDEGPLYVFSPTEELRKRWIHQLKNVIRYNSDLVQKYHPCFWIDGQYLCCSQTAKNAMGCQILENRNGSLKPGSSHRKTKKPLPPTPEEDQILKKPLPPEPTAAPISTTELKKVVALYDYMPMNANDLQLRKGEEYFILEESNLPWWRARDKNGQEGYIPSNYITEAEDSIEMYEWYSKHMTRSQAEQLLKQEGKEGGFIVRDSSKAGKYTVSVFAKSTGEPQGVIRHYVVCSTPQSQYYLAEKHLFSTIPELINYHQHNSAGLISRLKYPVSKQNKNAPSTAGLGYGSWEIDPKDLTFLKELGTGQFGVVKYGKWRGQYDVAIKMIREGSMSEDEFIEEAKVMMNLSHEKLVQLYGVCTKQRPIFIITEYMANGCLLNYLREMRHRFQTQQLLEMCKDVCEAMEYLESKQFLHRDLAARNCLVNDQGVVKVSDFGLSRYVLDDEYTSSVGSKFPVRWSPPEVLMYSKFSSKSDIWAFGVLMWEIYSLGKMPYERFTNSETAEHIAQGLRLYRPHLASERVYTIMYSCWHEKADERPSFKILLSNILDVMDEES

[7] = target: Tyrosine-protein kinase SYK (Mus musculus) (UniProt P48025); test: Inhibition of RANKL-mediated Syk phosphorylation in mouse BMMC at 100 uM after 1 hr by Western blot analysis
Tyrosine-protein kinase SYK (Mus musculus), sequence (P48025 whole entry, looked up): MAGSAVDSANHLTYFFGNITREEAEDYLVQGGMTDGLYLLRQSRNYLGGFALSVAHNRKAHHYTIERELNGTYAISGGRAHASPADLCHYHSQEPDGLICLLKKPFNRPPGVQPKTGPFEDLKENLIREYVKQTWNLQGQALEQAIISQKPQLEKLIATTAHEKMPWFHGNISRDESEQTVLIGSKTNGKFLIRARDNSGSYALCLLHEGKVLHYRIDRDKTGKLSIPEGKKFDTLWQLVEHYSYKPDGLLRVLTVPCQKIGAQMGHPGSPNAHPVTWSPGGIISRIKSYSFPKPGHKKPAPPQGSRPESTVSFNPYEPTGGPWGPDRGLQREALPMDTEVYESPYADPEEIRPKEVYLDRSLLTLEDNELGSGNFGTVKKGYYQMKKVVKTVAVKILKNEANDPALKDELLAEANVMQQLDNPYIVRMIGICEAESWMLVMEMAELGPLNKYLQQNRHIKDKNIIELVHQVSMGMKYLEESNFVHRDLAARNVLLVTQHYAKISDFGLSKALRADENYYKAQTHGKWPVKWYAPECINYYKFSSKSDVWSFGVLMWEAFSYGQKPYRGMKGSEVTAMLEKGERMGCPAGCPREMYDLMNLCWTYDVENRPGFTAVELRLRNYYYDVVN

Mus musculus [8] = test: Inhibition of LPS-induced bone loss in ICR mouse assessed as restoration of number of osteoclasts in femurs at 10 mg/kg, po after 10 days; format: functional, organism-based
[9] = target: T1, Tumor necrosis factor ligand superfamily member 11 (Mus musculus); test: Inhibition of RANKL-mediated osteoclast differentiation in mouse BMMC assessed as disruption of F-actin ring formation after 3 days using phalloidin and DAPI staining; format: functional
[10] = target: T1, Tumor necrosis factor ligand superfamily member 11 (Mus musculus); test: Inhibition of RANKL-mediated osteoclastogenesis in mouse BMMC assessed as reduction of DC-STAMP mRNA expression at 100 uM after 12 to 48 hrs by RT-PCR analysis; format: functional
Mus musculus [11] = test: Inhibition of LPS-induced bone loss in ICR mouse assessed as restoration of Tb.N in femurs at 10 mg/kg, po after 10 days by morphometric analysis; format: functional, organism-based
Mus musculus [12] = test: Inhibition of ovariectomized-induced bone loss in C57BL/6 mouse assessed as restoration of Tb.N in femurs at 10 mg/kg, po administered every other day for 28 days by morphometric analysis; format: functional, organism-based
Mus musculus [13] = test: Inhibition of LPS-induced bone loss in ICR mouse assessed as restoration of bone loss in femurs at 10 mg/kg, po after 10 days by hematoxylin and eosin staining; format: functional, organism-based
[14] = target: T1, Tumor necrosis factor ligand superfamily member 11 (Mus musculus); test: Inhibition of RANKL-mediated JNK phosphorylation in mouse BMMC at 100 uM after 1 hr by Western blot analysis
Mus musculus [15] = test: Inhibition of ovariectomized-induced bone loss in C57BL/6 mouse assessed as restoration number of osteoclasts in femurs at 10 mg/kg, po administered every other day for 28 days; format: functional, organism-based
Mus musculus [16] = test: Inhibition of ovariectomized-induced bone loss in C57BL/6 mouse assessed as restoration of Tb.Sp in femurs at 10 mg/kg, po administered every other day for 28 days by morphometric analysis; format: functional, organism-based
Mus musculus [17] = test: Inhibition of LPS-induced bone loss in ICR mouse assessed as restoration of osteoclast formation in femurs at 10 mg/kg, po after 10 days by hematoxylin and eosin staining; format: functional, organism-based
Mus musculus [18] = test: Inhibition of LPS-induced bone loss in ICR mouse assessed as reduction of CTX-I in serum at 10 mg/kg, po after 10 days by ELISA; format: functional, organism-based
Mus musculus [19] = test: Inhibition of LPS-induced bone loss in ICR mouse assessed as restoration of Tb.Th in femurs at 10 mg/kg, po after 10 days by morphometric analysis; format: functional, organism-based
[20] = target: T1, Tumor necrosis factor ligand superfamily member 11 (Mus musculus); test: Inhibition of RANKL-mediated ERK phosphorylation in mouse BMMC at 100 uM after 1 hr by Western blot analysis
[21] = target: T1, Tumor necrosis factor ligand superfamily member 11 (Mus musculus); test: Inhibition of RANKL-mediated osteoclastogenesis in mouse BMMC assessed as reduction of TRAP mRNA expression at 100 uM after 12 to 48 hrs by RT-PCR analysis; format: functional
[22] = target: T1, Tumor necrosis factor ligand superfamily member 11 (Mus musculus); test: Inhibition of RANKL-mediated osteoclastogenesis in mouse BMMC assessed as reduction of NFATc1 protein expression at 100 uM after 12 to 48 hrs by Western blot analysis; format: functional
Osteoclast = test: Inhibition of bone resorption in mouse mature osteoclasts after 24 hrs by light microscopic analysis; format: functional, cell-based
[23] = target: T1, Tumor necrosis factor ligand superfamily member 11 (Mus musculus); test: Inhibition of RANKL-mediated osteoclastogenesis in mouse BMMC assessed as reduction of beta3-integrin mRNA expression at 100 uM after 12 to 48 hrs by RT-PCR analysis; format: functional
Mus musculus [24] = test: Inhibition of LPS-induced bone loss in ICR mouse assessed as prevention of loss in trabecular bone in femurs at 10 mg/kg, po after 10 days by micro-CT analysis; format: functional, organism-based; conditions: Trabecula
Mus musculus [25] = test: Inhibition of ovariectomized-induced bone loss in C57BL/6 mouse assessed as restoration of osteoclast formation in femurs at 10 mg/kg, po administered every other day for 28 days by hematoxylin and eosin staining; format: functional, organism-based
Mus musculus [26] = test: Inhibition of LPS-induced bone loss in ICR mouse assessed as restoration of Tb.Sp in femurs at 10 mg/kg, po after 10 days by morphometric analysis; format: functional, organism-based
Mus musculus [27] = test: Inhibition of LPS-induced bone loss in ICR mouse assessed as reduction of RANKL/OPG ratio in serum level at 10 mg/kg, po after 10 days by ELISA; format: functional, organism-based
[28] = target: T1, Tumor necrosis factor ligand superfamily member 11 (Mus musculus); test: Inhibition of RANKL-mediated osteoclast differentiation in mouse BMMC assessed as formation of TRAP-positive osteoclasts after 4 days; format: functional
Mus musculus [29] = test: Inhibition of ovariectomized-induced bone loss in C57BL/6 mouse assessed as reduction of loss of bone mineral density at 10 mg/kg, po administered every other day for 28 days by micro-CT analysis; format: functional, organism-based
Mus musculus [30] = test: Inhibition of ovariectomized-induced bone loss in C57BL/6 mouse assessed as restoration of BV/TV in femurs at 10 mg/kg, po administered every other day for 28 days by morphometric analysis; format: functional, organism-based
[31] = target: T1, Tumor necrosis factor ligand superfamily member 11 (Mus musculus); test: Inhibition of RANKL-mediated osteoclastogenesis in mouse BMMC assessed as reduction of OSCAR mRNA expression at 100 uM after 12 to 48 hrs by RT-PCR analysis; format: functional
[32] = target: T1, Tumor necrosis factor ligand superfamily member 11 (Mus musculus); test: Inhibition of RANKL-mediated osteoclastogenesis in mouse BMMC assessed as reduction of c-Fos mRNA expression at 100 uM after 12 to 48 hrs by RT-PCR analysis; format: functional
[33] = target: T1, Tumor necrosis factor ligand superfamily member 11 (Mus musculus); test: Inhibition of RANKL-mediated osteoclastogenesis in mouse BMMC assessed as reduction of NFATc1 mRNA expression at 100 uM after 12 to 48 hrs by RT-PCR analysis; format: functional
[34] = target: T1, Tumor necrosis factor ligand superfamily member 11 (Mus musculus); test: Inhibition of RANKL-mediated osteoclastogenesis in mouse BMMC assessed as reduction of cathepsin K mRNA expression at 100 uM after 12 to 48 hrs by RT-PCR analysis; format: functional
[35] = target: T1, Tumor necrosis factor ligand superfamily member 11 (Mus musculus); test: Inhibition of RANKL-mediated osteoclastogenesis in mouse BMMC assessed as reduction of c-Fos protein expression at 100 uM after 12 to 48 hrs by Western blot analysis; format: functional
Mus musculus [36] = test: Inhibition of LPS-induced bone loss in ICR mouse assessed as restoration of BV/TV in femurs at 10 mg/kg, po after 10 days by morphometric analysis; format: functional, organism-based
[37] = target: T1, Tumor necrosis factor ligand superfamily member 11 (Mus musculus); test: Inhibition of RANKL-mediated osteoclastogenesis in mouse BMMC assessed as reduction of amplitude and frequency of Ca2+ oscillations at 100 uM after 24 hrs by Fura-2/AM fluorescence assay; format: functional

C[C@]1(OC(=O)/C=C/c2ccccc2)C[C@@H](O)[C@]2(O)C=CO[C@@H](O[C@@H]3O[C@H](CO)[C@@H](O)[C@H](O)[C@H]3O)[C@@H]21 [HARPAGOSIDE]
inhibition (Mus musculus [1]): inactive
inhibition [2]: Active
Activity [3]: Non-toxic
inhibition (Mus musculus [4]): inactive
inhibition [5]: Active
inhibition [6]: Active
inhibition [7]: Active
inhibition (Mus musculus [8]): Active
inhibition [9]: Dose-dependent effect
inhibition [10]: Active
inhibition (Mus musculus [11]): Active
inhibition (Mus musculus [12]): inactive
inhibition (Mus musculus [13]): Active
inhibition [14]: Active
inhibition (Mus musculus [15]): inactive
inhibition (Mus musculus [16]): inactive
inhibition (Mus musculus [17]): Active
inhibition (Mus musculus [18]): Active
inhibition (Mus musculus [19]): inactive
inhibition [20]: Active
inhibition [21]: Active
inhibition [22]: Active
inhibition (Osteoclast): Dose-dependent effect
inhibition [23]: Active
inhibition (Mus musculus [24]): Active
inhibition (Mus musculus [25]): inactive
inhibition (Mus musculus [26]): Active
inhibition (Mus musculus [27]): Active
inhibition [28]: Dose-dependent effect
inhibition (Mus musculus [29]): inactive
inhibition (Mus musculus [30]): inactive
inhibition [31]: Active
inhibition [32]: Active
inhibition [33]: Active
inhibition [34]: Active
inhibition [35]: Active
inhibition (Mus musculus [36]): Active
inhibition [37]: Active
